Entries after “also recorded” stand apart in the source; their conditions may differ. Where a SMILES comes first, the peptide text is derived from it.
Tests used:
[1] = tested on: γ-thrombin-induced platelet aggregation; assay: γ-thrombin-induced platelet aggregation in human platelet-rich plasma; format: cell-based; settings: for Concentration of Peptide [mM] That Gives 100% Inhibition: 40 nM human gamma thrombin, human platelet-rich plasma
Method: Fresh whole blood was collected and mixed with 0.013 M sodium citrate and platelet-rich plasma was prepared according to the method of Meloni et al., J. Biol. Chem. 266, 6786 (1991). Platelet-rich plasma with a normalized platelet count between 2-2.5×10^8 platelets/ml was added to a cuvette of an aggregometer (Chronlog Corp., Havertown, Pa.), standardized using the protocol of Meloni et al., supra. Peptides to be examined were added to the cuvette and the mixture stabilized for a few moments. Once the baseline was stabilized, γ-thrombin (10-70 nM) (Haematologic Technologies, Essex Junction, Vt.) was added to determine the minimal concentration of the agonist necessary to achieve full platelet aggregation. All investigations with peptides were performed using threshold concentrations of γ-thrombin. Aggregation was allowed to proceed for 5 minutes before stopping.
Table III is a tabulation of the library of peptides prepared and their influence on γ-thrombin-induced platelet aggregation in platelet-rich plasma. […] The numbers in the column represent the minimal concentration (mM) of the peptide that blocked 100% γ-thrombin-induced platelet aggregation of platelets in human platelet-rich plasma.
Human platelet samples were stimulated with 40 nM human gamma thrombin in each experiment.

[2] = molecular target: T1, recombinant extracellular domain of human PAR4 (rPAR4EC) (Homo sapiens, UniProt Q96RI0); assay: inhibition of RPPGFK-biotin binding to rPAR4EC; settings: 15 μM RPPGFK-biotin
T1 construct: starting with Gly^18, the first amino acid after the signal peptide is removed, and finishing with Arg^78; KSI fusion protein (N, cleaved yes); His-tag (N, cleaved yes); made in house; host or cells: E. coli 'BLD (DE3)' cells, pET31b; cDNA from HEL cell mRNA
T1 sequence (Q96RI0 18-78): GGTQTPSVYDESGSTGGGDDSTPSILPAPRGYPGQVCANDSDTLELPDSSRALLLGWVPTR
Method: Investigations were performed to determine if the compounds in the present invention interact with the exodomain of human PAR4. The extracellular fragment of human PAR4 has been expressed in bacteria. Human erythroleukemia (HEL) cells were used as a source for PAR4 mRNA. The level of PAR4 mRNA was substantially higher in HEL cells than washed human platelets. […] These primers give a 204 basepair fragment which codes for a 61 amino acid hPAR4 protein starting with Gly^18, the first amino acid after the signal peptide is removed, and finishing with Arg^78, the last amino acid of the extracellular fragment (Xu et al. Proc. Natl. Acad. Sci. 95, 6642-6646 (1998)). The pET31b-PAR4 vector after cloning was used to transform BLD (DE3) cells to express the recombinant protein. After IPTG stimulation, the recombinant protein was isolated from the bacterial lysate on a nickel affinity column followed by treatment with CNBr to remove the KSI fusion protein and His-tag on its amino terminal end. The isolated recombinant extracellular domain of PAR4 (rPAREC) is about 9 kDa on 16.5% Tris-Tricine SDS-PAGE. The recombinant protein is recognized as being human PAR4 by detection with an antibody prepared from a peptide (S^41[…]^52) (SEQ ID NO:9) from human PAR4EC. Recombinant PAR4EC was linked to microtiter plate cuvette wells. Goat polyclonal antibody to human PAR1, PAR3, or PAR4 was incubated with the coated microtiter plate cuvette wells and antibody binding was detected. Only antibody to PAR4 detected rPAR4EC linked to the microtiter plate wells. […] These studies indicate that peptides of the present invention also physically interact with human PAR4.

[3] = molecular target: T2, recombinant extracellular domain of human PAR1 (rPAR1EC) (Homo sapiens, UniProt P25116); assay: inhibition of RPPGFK-biotin binding to rPAR1EC; settings: 15 μM RPPGFK-biotin
T2 construct: A portion of the extracellular domain of human PAR1 (Ala^26-Ser^99) (rPAR1EC) was expressed in Escherichia coli; KSI fusion protein (cleaved yes); His tag (cleaved yes); made in house; host or cells: E. coli BL21(DE3), pET31b
T2 sequence (P25116 26-99): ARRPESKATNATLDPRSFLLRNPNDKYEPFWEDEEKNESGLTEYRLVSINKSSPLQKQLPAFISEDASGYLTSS

γ-thrombin = assay: inhibition of γ-thrombin hydrolysis of chromogenic substrate; format: biochemical, human; settings: read-out: Ki (μM) + SD, γIIa (2 nM); gamma-thrombin 2 nM, Sar-Pro-Arg-paranitroanilide
C57BL6 mice = assay: Rose Bengal model for arterial thrombosis, time to carotid artery occlusion; format: in vivo, mouse; settings: 0.2 to 3.22 mg/kg IP
From the text: C57BL6 mice 6 to 16 weeks of age were anesthetized by intraperitoneal injection with sodium pentobarbital and placed in the supine position on a dissecting microscope (Nikon SMZ-2T, Mager Scientific, Inc., Dexter, Mich.). A midline surgical incision was made to expose the right common carotid artery and a Doppler flow probe (Model 0.5 VB, Transonic Systems, Ithaca, N.Y.) is placed under the vessel. The probe was connected to a flowmeter (Transonic Model T106) and was interpreted with a computerized data acquisition program (Windaq, DATAQ Instruments, Arkron, Ohio). Rose Bengal (4,5,6,7-tetrachloro-3′,6-dihydroxy-2,4,5,7-tetraiodospiro(isobenzofuran-1(3H), 9 [9H] xanthan)-3-1 dipotassium salt) (Fisher Scientific, Fair Lawn, N.J.) at 50 mg/kg in 0.9% saline) was then injected into the tail vein in a 0.12 ml volume (Eitzman et al., Blood 95, 577 (2000)). After injection into the tail vein, a green laser light (Melles Griot, Carlsbad, Calif.) at a wavelength of 540 nm was applied 6 cm from the carotid artery. Flow is monitored continuously from the onset of injury. The time to occlusion was determined only after the vessel remained closed with a cessation of blood flow for 20 min. […] These investigations indicate that these compounds are able to prevent thrombosis in the whole animal in vivo.

| Structure (SMILES) | Concentration of Peptide [mM] That Gives 100% Inhibition [1] [mM] | RPPGFK-biotin displaced from rPAR4 exodomain ([2]; 1 μM peptide (so in the source)) [%] | RPPGFK-biotin displaced from rPAR1 exodomain ([3]; 1000 μM (1 mM) peptide) [%] | Ki (γ-thrombin) [µM] | concentration that abolished γ-thrombin-induced platelet aggregation ([1]; 40 nM γ-thrombin) | γ-thrombin-induced platelet aggregation ([1]; 8 μM peptide, 40 nM γ-thrombin) | RPPGFK-biotin displaced from rPAR4 exodomain ([2]; 30 μM peptide) [%] | RPPGFK-biotin displaced from rPAR4 exodomain ([2]; 300 μM peptide) [%] | RPPGFK-biotin displaced from rPAR4 exodomain ([2]; 1000 μM peptide) [%] | RPPGFK-biotin displaced from rPAR1 exodomain ([3]; 30 μM peptide) [%] | RPPGFK-biotin displaced from rPAR1 exodomain ([3]; 300 μM peptide) [%] | time to occlusion of the mouse right carotid artery (C57BL6 mice) |
| --- | --- | --- | --- | --- | --- | --- | --- | --- | --- | --- | --- | --- |
| N=C(N)NCCC[C@@H](N)C(=O)N1[C@H](C(=O)N2CCC[C@H]2C(=O)NCC(=O)N[C@@H](Cc2ccccc2)C(N)=O)C[C@@H]2CCCC[C@@H]21 [rOicPGF, D-Arg-Oic-Pro-Gly-Phe, reference compound] (HELM PEPTIDE1{[dR].[O=C([C@@H]1C[C@@H]2CCCC[C@@H]2N1[*:1])[*:2]].P.G.F.[am]}$$$$V2.0) | 0.142 | 50 | 50 |  |  |  |  |  |  |  |  |  |
| Cc1ccc(C[C@H](NC(=O)[C@@H](C)NC(=O)[C@@H]2CCCN2C(=O)[C@@H]2C[C@@H]3CCCC[C@@H]3N2C(=O)[C@H](N)CCCNC(=N)N)C(N)=O)cc1 [rOicPaF(p-Me), D-Arg-Oic-Pro-D-Ala-Phe(p-Me)] (HELM PEPTIDE1{[dR].[O=C([C@@H]1C[C@@H]2CCCC[C@@H]2N1[*:1])[*:2]].P.[dA].[Cc1ccc(C[C@H](N[*:1])C(=O)[*:2])cc1].[am]}$$$$V2.0) | 0.016 |  | 69 | 54.3 ± 16 | greater than or equal to 16 μM | returned to normal | 19 | 49 | 63 | 23 | 52 | significant prolongation; also recorded: progressively prolonged |

— US7879792B2, “Synthetic peptide inhibitors of thrombin and thrombin activation of protease activated receptors 1 and 4” (The Regents of the University of Michigan, priority 2005, dated 2011)
